Square brackets hold non-standard residues; d marks the D form. Peptide text beside a SMILES is read from it. * marks the point of attachment. Isonicotinoyl = O=C(c1ccncc1)*; Morpholide = C1CN(*)CCO1; PhAc = O=C(Cc1ccccc1)*; NHBn = c1ccc(CN*)cc1
The compounds below were run against VLA-4 (Homo sapiens, UniProt P05556+P13612) (assay: cell-based). Settings: not given.
Assay type: cell-based
Set-up: host or cells: Jurkat (human T lymphoblastic line)
Protocol: Binding inhibition is measured here as a concentration of peptide that inhibits one-half the binding between a standard number of Jurkat cells and a standard amount of CS-1 peptide bound to the surface of a microtiter plate well. Those concentrations are conveniently expressed as IC50 values, smaller numbers indicating a lower concentration required to inhibit 50 percent binding and therefore greater potency. Further specifics of this assay are provided hereinafter.
Jurkat cells (ATCC TIB 152), a human T lymphoblastic line, labeled with ^51 chromium were used to assay in vitro binding inhibition provided by various peptides discussed herein.
The plates were prepared as follows: The 25-mer CS-1 peptide (SEQ ID NO:1) dissolved at 0.5-1 μg/ml in a buffer of 0.1M NaHCO3 at pH 9.5 that also contained 10 μg/ml of bovine serum albumin (BSA) or a conjugate of the CS-1 peptide linked to ovalbumin (CS-1-OVA) dissolved at 1-2.5 μg/ml in the same buffer was used as the substrate. Each well of the microtiter plates was coated with 50 μl of substrate or buffer alone for controls. The wells were permitted to dry out completely and were then rinsed twice with PBS at pH 7.4. Non-specific binding sites of each well were then blocked using 200 μl per well of RPMI/1 percent BSA for two hours at room temperature. Both solid phase-affixed substrates provided similar results.
Jurkat cells (3-5×10^6 cells) were placed into a 15 ml Falcon™ round-bottom tube with a cap. The tube was centrifuged, and the extra medium was then removed.
Two hundred microliters of a ^51 Cr labeling solution were added to the centrifuged cells and maintained in contact with the cells for 90-120 minutes in a warm room. This procedure typically provides about 50,000-100,000 cpm/well with about 80-100 percent cell viability. Longer contact times provide a greater amount of labeling but lower cell viability.
The labeled cells are washed with (i) complete medium, (ii) 1 mM EDTA/PBS and then (iii) RPM1/1 percent BSA free of serum components. The cells are centrifuged after each washing. The cells are finally resuspended in serum-free RPMI/1 percent BSA at a concentration of 1×10^6 viable cells/ml, which provides a concentration that is diluted by one-half in the assay.
Inhibitor peptides are prepared as stock solutions at 20 mg/ml in DMSO in 1.5 ml cryogenic screwcap vials, and were stored at -70° C. Using Flow™ round-bottom or V-bottom microtiter plates, the inhibitor peptides were prepared at twice the assay concentration in RPMI/1 percent BSA at 60 μl well.
Four initial dilutions were typically used.
The ^51 Cr-labeled cells (1×10^6 cells at 60 μl/well) were then admixed with the diluted peptide solutions. The admixtures were maintained at room temperature (about 22° C.) for 30 minutes.
One hundred microliters of each inhibitor peptide/cell admixture were transferred to the substrate-coated wells. This was done in triplicate for each dilution. The resulting plates were incubated for 30 minutes at 37° C. and then washed gently three times with RPMI/1 percent BSA at 200 μl/well. Binding was observed microscopically, particularly after the second wash.
The bound cells were then lysed by the addition of a 0.5 percent solution of sodium dodecylsulfate in water at 100 μ/l well. The resulting solutions were then processed for counting and calculation of IC50 values following usual procedures. Appropriate positive and negative controls were used with each plate so that the results of separate assays could be normalized and compared.
The data of Table 1 are so normalized.

Sequence of VLA-4 (P13612 34-1032): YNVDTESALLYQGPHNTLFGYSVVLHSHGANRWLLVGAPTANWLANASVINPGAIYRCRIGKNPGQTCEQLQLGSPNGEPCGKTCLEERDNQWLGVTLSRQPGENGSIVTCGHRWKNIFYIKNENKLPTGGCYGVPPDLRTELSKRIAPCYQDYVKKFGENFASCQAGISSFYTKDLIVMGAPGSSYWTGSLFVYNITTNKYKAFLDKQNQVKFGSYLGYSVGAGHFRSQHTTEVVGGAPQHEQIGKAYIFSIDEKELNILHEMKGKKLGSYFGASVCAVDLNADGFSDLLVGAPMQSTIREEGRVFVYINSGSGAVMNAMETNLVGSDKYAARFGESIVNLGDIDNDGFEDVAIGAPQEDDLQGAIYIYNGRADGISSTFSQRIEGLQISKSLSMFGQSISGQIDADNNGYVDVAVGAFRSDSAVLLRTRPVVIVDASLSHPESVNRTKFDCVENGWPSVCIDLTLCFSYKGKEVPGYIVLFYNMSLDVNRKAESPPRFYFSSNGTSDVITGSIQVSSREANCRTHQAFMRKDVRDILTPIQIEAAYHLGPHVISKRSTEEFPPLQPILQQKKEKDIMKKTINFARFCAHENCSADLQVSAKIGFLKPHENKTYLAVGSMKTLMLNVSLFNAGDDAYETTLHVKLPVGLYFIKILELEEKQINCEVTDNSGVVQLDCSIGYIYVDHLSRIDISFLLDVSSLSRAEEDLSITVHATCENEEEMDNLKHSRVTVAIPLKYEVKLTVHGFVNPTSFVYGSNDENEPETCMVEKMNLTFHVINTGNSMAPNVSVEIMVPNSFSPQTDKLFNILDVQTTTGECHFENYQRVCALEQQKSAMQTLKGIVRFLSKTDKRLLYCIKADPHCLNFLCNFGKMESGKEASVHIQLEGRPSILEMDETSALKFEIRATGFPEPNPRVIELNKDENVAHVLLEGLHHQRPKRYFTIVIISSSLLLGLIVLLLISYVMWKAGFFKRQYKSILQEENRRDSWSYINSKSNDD
Sequence of VLA-4 (P05556 21-798): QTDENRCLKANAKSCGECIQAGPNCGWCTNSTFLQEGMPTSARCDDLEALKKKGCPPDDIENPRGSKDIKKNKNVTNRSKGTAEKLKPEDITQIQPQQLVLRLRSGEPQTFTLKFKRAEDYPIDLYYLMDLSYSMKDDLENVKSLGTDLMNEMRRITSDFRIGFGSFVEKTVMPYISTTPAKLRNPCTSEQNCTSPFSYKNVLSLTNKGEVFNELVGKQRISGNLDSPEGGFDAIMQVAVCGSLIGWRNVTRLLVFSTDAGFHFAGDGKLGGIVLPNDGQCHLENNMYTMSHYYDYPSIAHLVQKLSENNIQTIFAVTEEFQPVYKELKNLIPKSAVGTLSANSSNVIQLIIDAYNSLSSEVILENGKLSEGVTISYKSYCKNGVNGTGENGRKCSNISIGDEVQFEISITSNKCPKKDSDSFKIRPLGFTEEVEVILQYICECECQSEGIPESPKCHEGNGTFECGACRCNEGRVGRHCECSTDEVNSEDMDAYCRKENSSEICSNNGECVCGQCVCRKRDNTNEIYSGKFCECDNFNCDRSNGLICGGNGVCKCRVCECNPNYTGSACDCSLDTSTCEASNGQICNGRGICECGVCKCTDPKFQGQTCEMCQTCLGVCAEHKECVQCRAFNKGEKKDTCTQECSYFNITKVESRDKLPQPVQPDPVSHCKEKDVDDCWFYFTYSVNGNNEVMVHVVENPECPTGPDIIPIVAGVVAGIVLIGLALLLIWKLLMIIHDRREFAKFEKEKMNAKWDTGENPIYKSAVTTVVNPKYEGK

| RELATIVE POTENCY (relative peptide inhibition of VLA-4 binding CS-1) | SMILES |
| --- | --- |
| 656 | CC(C)C[C@H](NC(=O)c1ccncc1)C(=O)N[C@@H](CC(=O)O)C(=O)N[C@@H](Cc1ccccc1)C(=O)N1CCC[C@@H]1C(N)=O [X L D F p pyridine-4-carbonyl amide] (Isonicotinoyl-LDF[dP]-NH2) |
| 1 | CC(C)C[C@H](NC(=O)c1cccc2ccccc12)C(=O)N[C@@H](CC(=O)O)C(=O)N[C@H](C(=O)N1CCC[C@@H]1C(N)=O)C(C)C [X L D V p 1-naphthoyl amide] |
| 9 | Cc1cccc(C(=O)N[C@@H](CC(C)C)C(=O)N[C@@H](CC(=O)O)C(=O)N[C@H](C(=O)N2CCC[C@@H]2C(N)=O)C(C)C)c1C [X L D V p 2,3-dimethylbenzoyl amide] |
| 5 | Cc1cccc(C)c1C(=O)N[C@@H](CC(C)C)C(=O)N[C@@H](CC(=O)O)C(=O)N[C@H](C(=O)N1CCC[C@@H]1C(N)=O)C(C)C [X L D V p 2,6-dimethylbenzoyl amide] |
| 1 | CC(C)C[C@H](NC(=O)c1ccc2ccccc2c1)C(=O)N[C@@H](CC(=O)O)C(=O)N[C@H](C(=O)N1CCC[C@@H]1C(N)=O)C(C)C [X L D V p 2-naphthoyl amide] |
| 8 | Cc1ccc(C(=O)N[C@@H](CC(C)C)C(=O)N[C@@H](CC(=O)O)C(=O)N[C@H](C(=O)N2CCC[C@@H]2C(N)=O)C(C)C)cc1C [X L D V p 3,4-dimethylbenzoyl amide] |
| 3 | CCC(C)CC(=O)N[C@@H](CC(C)C)C(=O)N[C@@H](CC(=O)O)C(=O)N[C@H](C(=O)N1CCC[C@@H]1C(N)=O)C(C)C (stereo partly shown) [X L D V p 3-methylvaleroyl amide] |
| 3 | CC(C)CCC(=O)N[C@@H](CC(C)C)C(=O)N[C@@H](CC(=O)O)C(=O)N[C@H](C(=O)N1CCC[C@@H]1C(N)=O)C(C)C [X L D V p 4-methylvaleroyl amide] |
| 1 | CC(C)C[C@H](NC(=O)C12CC3CC(CC(C3)C1)C2)C(=O)N[C@@H](CC(=O)O)C(=O)N[C@H](C(=O)N1CCC[C@@H]1C(N)=O)C(C)C [X L D V p adamantanecarbonyl amide] |
| 2 | CC(C)C[C@H](NC(=O)CC1CCCCC1)C(=O)N[C@@H](CC(=O)O)C(=O)N[C@H](C(=O)N1CCC[C@@H]1C(N)=O)C(C)C [X L D V p cyclohexaneacetyl amide] |
| 5 | CC(C)C[C@H](NC(=O)C1CCCCC1)C(=O)N[C@@H](CC(=O)O)C(=O)N[C@H](C(=O)N1CCC[C@@H]1C(N)=O)C(C)C [X L D V p cyclohexanecarbonyl amide] |
| 1 | CC(C)C[C@H](NC(=O)CCC1CCCCC1)C(=O)N[C@@H](CC(=O)O)C(=O)N[C@H](C(=O)N1CCC[C@@H]1C(N)=O)C(C)C [X L D V p cyclohexanepropionyl amide] |
| 14 | CC(C)C[C@H](NC(=O)CCc1ccccc1)C(=O)N[C@@H](CC(=O)O)C(=O)N[C@H](C(=O)N1CCC[C@@H]1C(N)=O)C(C)C [X L D V p phenylpropionyl amide] |
| 140 | CC(C)C[C@@H](C(=O)N[C@@H](CC(=O)O)C(=O)N[C@H](C(=O)N1CCC[C@@H]1C(N)=O)C(C)C)N1C(=O)c2ccccc2C1=O [X L D V p phthalimido amide] |
| 8 | CC(C)C[C@H](NC(=O)c1ccccn1)C(=O)N[C@@H](CC(=O)O)C(=O)N[C@H](C(=O)N1CCC[C@@H]1C(N)=O)C(C)C [X L D V p pyridine-2-carbonyl amide] |
| 71 | CC(C)C[C@H](NC(=O)c1cccnc1)C(=O)N[C@@H](CC(=O)O)C(=O)N[C@H](C(=O)N1CCC[C@@H]1C(N)=O)C(C)C [X L D V p pyridine-3-carbonyl amide] |

| SMILES | RELATIVE POTENCY (relative peptide inhibition of VLA-4 binding CS-1) |
| --- | --- |
| CC(C)C[C@H](NC(=O)C=Cc1ccccc1)C(=O)N[C@@H](CC(=O)O)C(=O)N[C@H](C(=O)N1CCC[C@@H]1C(N)=O)C(C)C [X L D V p cinnamoyl amide] | 1 |

Same assay, conditions: normalized IC50 relative to standard peptide of SEQ ID NO:3 (=1); about one-tenth or less of the standard is assigned zero

| SMILES | RELATIVE POTENCY (relative peptide inhibition of VLA-4 binding CS-1) |
| --- | --- |
| CC(C)C[C@H](NC(=O)Cc1ccccc1)C(=O)N[C@@H](CC(=O)O)C(=O)N[C@@H](Cc1ccccc1)C(N)=O [X L D F phenylacetyl amide] (PhAc-Leu-Asp-Phe-NH2) | 1 |
| CC(C)C[C@H](NC(=O)Cc1ccccc1)C(=O)N[C@@H](CC(=O)O)C(=O)NCC(=O)N1CCOCC1 [X L D G Z phenylacetyl morpholinamide] (PhAc-Leu-Asp-Gly-Morpholide) | 9 |
| CC(C)C[C@H](NC(=O)Cc1ccccc1)C(=O)N[C@@H](CC(=O)O)C(=O)N[C@@H](CC(C)C)C(=O)N1CCOCC1 [X L D L Z phenylacetyl morpholinamide] (PhAc-Leu-Asp-Leu-Morpholide) | 291 |
| CC(C)C[C@H](NC(=O)Cc1ccccc1)C(=O)N[C@@H](CC(=O)O)C(=O)N[C@@H](CO)C(=O)N1CCC[C@@H]1C(N)=O [X L D S p phenylacetyl amide] (PhAc-LDS[dP]-NH2) | 17 |
| CC(C)C[C@H](NC(=O)c1ccccc1)C(=O)N[C@@H](CC(=O)O)C(=O)N[C@H](C(=O)N1CCC[C@H]1C(N)=O)C(C)C [X L D V P benzoyl amide] | 37 |
| CC(C)C[C@H](NC(=O)Cc1ccccc1)C(=O)N[C@@H](CC(=O)O)C(=O)N[C@H](C(=O)N1CCC[C@@H]1C(N)=O)C(C)C [X L D V p phenylacetyl amide, N-phenylacetyl-Leu-Asp-Val-D-Pro-NH2] | 106 |
| CC(C)C[C@H](NC(=O)Cc1ccccc1)C(=O)N[C@@H](CC(=O)O)C(=O)N[C@@H](Cc1c[nH]c2ccccc12)C(=O)N1CCC[C@@H]1C(N)=O [X L D W p phenylacetyl amide] (PhAc-LDW[dP]-NH2) | 184 |
| CC(C)C[C@H](NC(=O)Cc1ccccc1)C(=O)N[C@@H](CC(=O)O)C(=O)N[C@@H](Cc1ccc(O)cc1)C(=O)N1CCOCC1 [X L D Y Z phenylacetyl morpholinamide, N-phenylacetyl-Leu-Asp-Tyr-morpholinamide] (PhAc-Leu-Asp-Tyr-Morpholide) | 313 |
| CC(C)C[C@H](NC(=O)Cc1ccccc1)C(=O)N[C@@H](CC(=O)O)C(=O)N[C@@H](Cc1ccc(O)cc1)C(=O)N1CCC[C@@H]1C(N)=O [X L D Y p phenylacetyl amide, N-phenylacetyl-Leu-Asp-Tyr-D-Pro-NH2] (PhAc-LDY[dP]-NH2) | 640 |
| CC(C)C[C@H](NC(=O)Cc1ccccc1)C(=O)N[C@@H](CC(=O)O)C(=O)NNC(=O)OC(C)(C)C [X L D Z phenylacetyl N'-t-Boc-hydrazide] | 2 |
| CC(C)C[C@H](NC(=O)Cc1ccccc1)C(=O)N[C@@H](CC(=O)O)C(=O)NCc1ccccc1 [X L D Z phenylacetyl benzylamide] (PhAc-Leu-Asp-NHBn) | 19 |
| CC(C)C[C@H](NC(=O)Cc1ccccc1)C(=O)N[C@@H](CC(=O)O)C(=O)NC(c1ccccc1)c1ccccc1 [X L D Z phenylacetyl benzylhydrylamide] | 3 |

Same assay, conditions: normalized IC50 relative to standard peptide of SEQ ID NO:3 (=1); about one-tenth or less of the standard is assigned zero; listed as X L D V p benzoyl amide

| SMILES | RELATIVE POTENCY (relative peptide inhibition of VLA-4 binding CS-1) |
| --- | --- |
| CC(C)C[C@H](NC(=O)c1ccccc1)C(=O)N[C@@H](CC(=O)O)C(=O)N[C@H](C(=O)N1CCC[C@H]1C(N)=O)C(C)C [X L D V P benzoyl amide] | 20 |

Same assay, conditions: normalized IC50 relative to standard peptide of SEQ ID NO:3 (=1); about one-tenth or less of the standard is assigned zero; listed as X L D Y P phenylacetyl amide

| SMILES | RELATIVE POTENCY (relative peptide inhibition of VLA-4 binding CS-1) |
| --- | --- |
| CC(C)C[C@H](NC(=O)Cc1ccccc1)C(=O)N[C@@H](CC(=O)O)C(=O)N[C@@H](Cc1ccc(O)cc1)C(=O)N1CCC[C@@H]1C(N)=O [X L D Y p phenylacetyl amide, N-phenylacetyl-Leu-Asp-Tyr-D-Pro-NH2] (PhAc-LDY[dP]-NH2) | 405 |

Reference: patent US5688913A, “CS-1 peptidomimetics, compositions and methods of using the same” (Cytel Corporation, priority 1995, dated 1997)
